Laboratory results as given in patent US11279703B2, “Fused pyrimidine compounds as BRD4 and JAK2 dual inhibitors and methods for use thereof” (APTOSE BIOSCIENCES INC., priority 2016, dated 2022).

What was measured:
BRD4-BD1 = BRD4-BD1 (Homo sapiens (Human), UniProt O60885); assay: AlphaLisa bromodomain binding assay, BRD4-BD1; settings: Table 6; read-out: BRD4(1) IC50
Excerpt: An AlphaLisa assay was used to observe bromodomain binding and measure IC50s for the compounds disclosed herein. An AlphaLisa assay is a bead-based assay used to detect interactions between bromodomains and polyacetylated histone peptides. Donor and acceptor beads bound to target and ligand are brought into proximity by this protein-protein interaction.
Equipment Required • 1. […] Plate centrifuge • 3. Plate shaker • 4. […] Single channel and multi-channel pipettes • 6. Microplate reader (Pherastar)
(§1) Stock and Final Assay Concentrations (FAC) • 1. All reference and test compounds are made at a concentration of 10 mM in DMSO. Compounds are serially diluted in DMSO and a FAC starting from 10 μM to 10 point 3 fold serial dilutions is arrived. FAC of DMSO is 1%. • 2. Enzyme stock and FAC
Biotinylated substrate (Acetylated histone H4, biotinylated substrate—cat no. AS64989-025, Anaspec) stock and FAC
• 4. Acceptor and donor beads stock and FAC
Buffers • For the enzyme and substrate dilution following buffer is used (for 50 ml) • HEPES: 50 mM 2.5 ml • NaCl: 25 mM 1.25 ml • DTT: 10 mM 0.05 ml • BSA: 0.1% 0.05 g • MilliQ water: 45.7 ml • For dilution of acceptor and donor beads AlphaLISA 5× epigenetics Buffer Perkin Elmer (Cat: AL008C) is used at 1× concentration.
Procedure • 1. […] Tap the plate gently • 3. […] Cover with plate sealer • 5. […] Incubate the plate at room temperature for 10 minutes • 7. Add 10 μl of the substrate • 8. Cover with plate sealer • 9. […] Cover with plate sealer • 14. […] Cover with plate sealer • 18.
(§2) The percent inhibition is calculated in the excel analysis template and the IC50 values are subsequently determined using a sigmoidal dose-response curve (variable slope) using GraphPad Prism® 5 software.

JAK2 = JAK2 (Homo sapiens (Human), UniProt O60674); assay: HTRF kinase assay, JAK2; assay type: biochemical
Sequence of JAK2 (O60674 whole entry): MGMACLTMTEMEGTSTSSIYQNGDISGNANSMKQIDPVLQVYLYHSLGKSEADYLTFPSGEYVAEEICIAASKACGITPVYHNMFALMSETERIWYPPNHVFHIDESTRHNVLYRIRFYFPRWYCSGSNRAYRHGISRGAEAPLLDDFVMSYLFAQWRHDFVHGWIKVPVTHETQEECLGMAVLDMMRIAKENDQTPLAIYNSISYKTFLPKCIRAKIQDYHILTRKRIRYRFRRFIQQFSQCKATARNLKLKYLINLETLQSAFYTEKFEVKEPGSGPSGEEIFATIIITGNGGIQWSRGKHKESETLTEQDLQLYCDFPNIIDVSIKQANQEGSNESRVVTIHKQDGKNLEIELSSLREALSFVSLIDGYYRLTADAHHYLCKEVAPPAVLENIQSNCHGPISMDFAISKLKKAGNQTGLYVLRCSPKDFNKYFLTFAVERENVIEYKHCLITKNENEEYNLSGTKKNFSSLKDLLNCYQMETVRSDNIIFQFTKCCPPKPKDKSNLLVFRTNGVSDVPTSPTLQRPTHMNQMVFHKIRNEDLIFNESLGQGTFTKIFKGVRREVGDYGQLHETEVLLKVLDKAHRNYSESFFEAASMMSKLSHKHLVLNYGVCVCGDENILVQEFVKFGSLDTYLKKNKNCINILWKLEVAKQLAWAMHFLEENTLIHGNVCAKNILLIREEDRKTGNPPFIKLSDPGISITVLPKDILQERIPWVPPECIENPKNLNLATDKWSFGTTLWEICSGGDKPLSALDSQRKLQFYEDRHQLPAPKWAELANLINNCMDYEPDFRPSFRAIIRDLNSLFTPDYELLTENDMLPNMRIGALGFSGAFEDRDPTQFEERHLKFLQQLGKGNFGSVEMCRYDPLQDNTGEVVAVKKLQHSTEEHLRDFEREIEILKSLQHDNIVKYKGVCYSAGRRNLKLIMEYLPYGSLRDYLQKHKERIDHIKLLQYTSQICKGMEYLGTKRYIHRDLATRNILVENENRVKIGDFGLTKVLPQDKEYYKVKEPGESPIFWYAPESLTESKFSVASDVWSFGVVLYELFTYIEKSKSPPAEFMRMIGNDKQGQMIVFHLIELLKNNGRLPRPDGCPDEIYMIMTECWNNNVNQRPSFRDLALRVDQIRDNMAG
Excerpt: A kinase assay with HTRF was used to observe JAK activity and calculate the IC50s of compounds disclosed herein. HTRF is an enzymatic assay used to determine the amount of phosphorylated peptide. FRET (Fluorescence Resonance Energy Transfer) is based on the transfer of energy between two fluorophores—a donor and an acceptor—when in close proximity. Molecular interactions between biomolecules can be assessed by coupling each partner with a fluorescent label and by detecting the level of energy transfer. The amount of phopshorylated peptide can be detected using a combination of a Eu 3+Cryptate labeled anti-phospho residue antibody, SA-XL665 and a biotinylated substrate. The signal is proportional to the concentration of phospho-residues.
Equipment Required • 1. […] Plate centrifuge • 3. Plate shaker • 4. […] Single channel and multi-channel pipettes • 6. Microplate reader (Pherastar)]
as §1, with “arrived. For Ruxolitinib the starting FAC is 1 μM.” for “arrived.”
• JAK-1: Invtirogen Cat: PR8767C • JAK-2: Invtirogen Cat: PR7820B • JAK-3: Invtirogen Cat: PR7507B • 3. Substrate (synthetic peptide-Biotinylated-N-terminal tag-[…] from Biopeptide) stock and FAC
• Adenosine 5′-triphosphate disodium salt hydrate: Sigma Cat: A26209 • 5. […] Buffers • Base buffer (for 50 ml)
• HTRF buffer: • 50 mM Tris-HCl, pH—7.5 • 100 mM NaCl • 0.1% BSA • 0.05% Tween20 • 0.5 mM EDTA
To a 384 well black-plate: • 1. Add 17 μL of the buffer to each well of the 384-well black plate • 2. […] Add 5 μl of the enzyme to each well of the plate • 4. Add 10 μl of the substrate and ATP mix to all the wells • 5. Cover with plate sealer • 6. […] Incubate at room temperature for 1 hour on shaker • 8. […] Add 37.5 μL of the HTRF mix to these wells. • 9. Incubate the plate at room temperature on shaker for 45 minutes. • 10.
as §2

| SMILES | IC50 (BRD4-BD1) [nM] | IC50 (JAK2; Table 6) [nM] | IC50 (JAK2; Table 3) [nM] | IC50 (JAK2; Table 4) [nM] |
| --- | --- | --- | --- | --- |
| COc1cc(Nc2ncc3scc(-c4cccc(NS(=O)(=O)C(C)(C)C)c4)c3n2)ccc1N1CCC(N(C)C)CC1 | 560 | 1 |  |  |
| Cc1cnc(Nc2ccc(N3CCN(C)CC3)cc2)nc1Nc1cccc(NS(=O)(=O)C(C)(C)C)c1 [drawing 391] | 141 | 6 |  |  |
| CN1CCN(c2ccc(Nc3nc(Nc4cccc(NS(=O)(=O)C(C)(C)C)c4)c4ncsc4n3)cc2)CC1 | 1540 | 10000 |  |  |
| CN(C)C1CCN(c2ccc(Nc3ncc4ccn(-c5cccc(NS(=O)(=O)C(C)(C)C)c5)c4n3)cc2F)CC1 [drawing 65] |  |  | 4.4 |  |
| CN(C)C1CCN(c2ccc(Nc3ncc4ccn(-c5cccc(NS(=O)(=O)C(C)(C)C)c5)c4n3)cc2F)CC1 [drawing 371] | 131 | 3 |  |  |
| Cc1cnc(Nc2ccc(N3CCN(C)CC3)cc2)nc1-n1ccc(C(=O)NC2CC2)c1 |  | 30 |  |  |
| CN1CCN(c2ccc(Nc3ncc4scc(-c5cccc(NS(=O)(=O)C(C)(C)C)c5)c4n3)cc2)CC1 |  |  | 4.8 |  |
| CN(C)C1CCN(c2ccc(Nc3ncc4ccn(-c5cccc(NS(=O)(=O)C(C)(C)C)c5)c4n3)cc2F)CC1 [drawing 385] | 131 | 3 |  |  |
| CN1CCN(c2ccc(Nc3ncc4ccn(-c5cccc(NS(=O)(=O)c6ccccc6)c5)c4n3)cc2)CC1 [drawing 62] |  |  | 3 |  |
| CC(C)S(=O)(=O)N1CCN(c2ccc(Nc3ncc4ccn(-c5cccc(NS(=O)(=O)C(C)(C)C)c5)c4n3)cc2)CC1 | 8300 | 120 |  |  |
| CN(C)C1CCN(c2ccc(Nc3ncc4ccn(-c5cccc(NS(=O)(=O)C6CC6)c5)c4n3)cc2)CC1 | 866 | 14 |  |  |
| CN1CCN(c2ccc(Nc3ncc4scc(-c5cccc(NS(=O)(=O)C(C)(C)C)c5)c4n3)cc2F)CC1 | 393 | 18 |  |  |
| CC(C)(C)S(=O)(=O)Nc1cccc(-n2ccc3cnc(Nc4ccc(CC(=O)NCCN)cc4)nc32)c1 | 406 | 64 |  |  |
| CN1CCN(c2ccc(Nc3ncc4ccn(-c5ccc(F)c(NS(=O)(=O)C(C)(C)C)c5)c4n3)cc2F)CC1 | 149 | 62 |  |  |
| CNC1CCN(C(=O)c2ccc(Nc3ncc4ccn(-c5cccc(NS(=O)(=O)C(C)(C)C)c5)c4n3)cc2F)CC1 | 234 | 29 |  |  |
| CNCC1CCN(c2ccc(Nc3ncc4c(n3)N(c3cccc(NS(=O)(=O)C(C)(C)C)c3)CC4)cc2F)CC1 | 580 | 9 |  |  |
| CC1CNCC(C)C1Nc1nc(Nc2cccc(NS(=O)(=O)C(C)(C)C)c2)c2ccsc2n1 (centres unmarked) | 10000 | 10000 |  |  |
| Cc1cnc(Nc2ccc(N3CCN(C)CC3)cc2)nc1Nc1cccc(NS(=O)(=O)C(C)(C)C)c1 [drawing 405] | 208 | 14 |  |  |
| CN1CCN(c2ccc(Nc3nccc(Nc4cccc5c4CC(=O)N5)n3)cc2)CC1 |  | 387 |  |  |
| CCC1(S(=O)(=O)Nc2cc(-n3ccc4cnc(Nc5ccc(N6CCN(C)CC6)c(F)c5)nc43)ccc2F)CC1 | 1500 | 103 |  |  |
| CC(C)(C)S(=O)(=O)Nc1cc(-n2ccc3cnc(Nc4ccc(N5CCNC(=O)C5)c(F)c4)nc32)ccc1F | 295 | 142 |  |  |
| CN1CCN(c2ccc(Nc3nc(Nc4ccc(Cl)c(NS(=O)(=O)C(C)(C)C)c4)c4sccc4n3)cc2)CC1 | 2680 | 10000 |  |  |
| CN1CCC(Nc2nc(Nc3cccc(N(C)S(=O)(=O)C(C)(C)C)c3)c3ccsc3n2)CC1 | 940 | 10000 |  |  |
| COc1cc(N2CCN(C)CC2)ccc1Nc1ncc2ccn(-c3cccc(NS(=O)(=O)C(C)(C)C)c3)c2n1 | 1600 | 2800 |  |  |
| COc1cc(Nc2ncc3scc(-c4cccc(NS(=O)(=O)C(C)(C)C)c4)c3n2)ccc1N1CCNCC1 | 356 | 4 |  |  |

| SMILES | IC50 (BRD4-BD1) [nM] | IC50 (JAK2; Table 6) [nM] | IC50 (JAK2; Table 3) [nM] | IC50 (JAK2; Table 4) [nM] |
| --- | --- | --- | --- | --- |
| CN1CCC(NC(=O)c2ccc(Nc3ncc4ccn(-c5ccc(F)c(NS(=O)(=O)C6CC6)c5)c4n3)cc2F)CC1 | 776 | 35 |  |  |
| CN(C)C1CCN(c2ccc(Nc3ncc4ccn(-c5ccc(F)c(NS(=O)(=O)C(C)(C)C)c5)c4n3)cc2F)CC1 [drawing 397] | 63 | 27 |  |  |
| CC(C)(C)S(=O)(=O)Nc1cccc(Nc2nc(NC3CCNC(=O)C3)nc3sccc23)c1 (centres unmarked) | 1210 | 10000 |  |  |
| CN1CCN(c2ccc(Nc3ncc4ccn(-c5cccc(NC(=O)C(C)(C)C)c5)c4n3)cc2)CC1 | 10000 | 54 |  |  |
| CN1CCN(C(=O)Cc2ccc(Nc3ncc4ccn(-c5ccc(F)c(NS(=O)(=O)C(C)(C)C)c5)c4n3)cc2)CC1 | 643 | 239 |  |  |
| CN1CCC(NC(=O)c2ccc(Nc3ncc4ccn(-c5ccc(F)c(NS(=O)(=O)C(C)(C)C)c5)c4n3)cc2)CC1 | 372 | 177 |  |  |
| CN1CCN(c2ccc(Nc3ncc4ccn(-c5cccc(NS(=O)(=O)C(C)(C)C)c5)c4n3)cc2C(N)=O)CC1 | 577 | 72 |  |  |
| CC(C)(C)S(=O)(=O)Nc1cccc(Nc2nc(NC3CC4CC3CN4)nc3sccc23)c1 (centres unmarked) | 260 | 4170 |  |  |
| CN1CCC(NC(=O)c2ccc(Nc3ncc4ccn(-c5cccc(NS(=O)(=O)C6CC6)c5)c4n3)cc2F)CC1 | 856 | 13 |  |  |
| CC(C)(C)S(=O)(=O)Nc1cccc(-n2ccc3cnc(Nc4ccc(C(=O)NC5CCNCC5)cc4)nc32)c1 | 649 | 24 |  |  |
| CN1CCN(c2ccc(Nc3ncc4ccn(-c5ccc(F)c(NS(=O)(=O)C(C)(C)C)c5)c4n3)cc2)CC1 [drawing 340] | 228 | 188 |  |  |
| CNCC1CCN(c2ccc(Nc3ncc4ccn(-c5cccc(NS(=O)(=O)C(C)(C)C)c5)c4n3)cc2F)CC1 | 220 | 7 |  |  |
| CN(C)C1CCN(C(=O)c2ccc(Nc3ncc4ccn(-c5ccc(F)c(NS(=O)(=O)C(C)(C)C)c5)c4n3)cc2F)CC1 | 123 | 170 |  |  |
| O=S(=O)(Nc1cccc(-n2ccc3cnc(Nc4ccc(N5CCNCC5)cc4)nc32)c1)C1CC1 [drawing 68] |  |  | 5 |  |
| CN1CCN(c2ccc(Nc3ncc4ccn(-c5cccc(NS(=O)(=O)C6CC6)c5)c4n3)cc2)CC1 [drawing 61] |  |  | 2.5 |  |
| Cc1sc2c(c1C)C(c1ccc(Cl)cc1)=N[C@@H](CC(=O)OC(C)(C)C)c1nnc(C)n1-2 |  | 10000 |  |  |
| CN1CCN(c2ccc(Nc3ncc4ccn(-c5ccc(CNS(=O)(=O)C(C)(C)C)cc5)c4n3)cc2)CC1 [drawing 70] |  |  |  | 0.18 |
| CN1CCN(c2ccc(Nc3ncc4ccn(-c5ccc6c(c5)CCN6S(=O)(=O)C(C)(C)C)c4n3)cc2)CC1 [drawing 71] |  |  |  | 0.6 |
| O=S(=O)(Nc1cccc(-n2ccc3cnc(Nc4ccc(N5CCNCC5)cc4)nc32)c1)C1CC1 [drawing 63] |  |  | 2 |  |
| CN1CCN(c2ccc(Nc3ncc4ccn(-c5ccc(NS(=O)(=O)C(C)(C)C)cc5)c4n3)cc2)CC1 [drawing 69] |  |  |  | 0.7 |
| CN1CCN(c2ccc(Nc3ncc4ccn(-c5cccc(NS(=O)(=O)C6CC6)c5)c4n3)cc2)CC1 [drawing 64] |  |  | 4.3 |  |
| CC(=O)N1CCN(c2ccc(Nc3ncc4ccn(-c5cccc(NS(=O)(=O)C(C)(C)C)c5)c4n3)cc2)CC1 |  | 45 |  |  |
| COc1cccc(Nc2nccc(-c3cccc4c3CC(=O)N4)n2)c1 |  | 2250 |  |  |
| Cc1noc(C)c1-c1cccc(-n2ccc3cnc(Nc4ccc(N5CCN(C)CC5)cc4)nc32)c1 [drawing 67] |  |  | 3 |  |
| O=C1Cc2c(cccc2-c2ccnc(Nc3ccccc3)n2)N1 |  | 6780 |  |  |
